We go through 21 compounds from PubChem BioAssay AID1259408 (Genetic Toxicology Data Bank (GENE-TOX), 2018).

The data set deals with GENE-TOX genotoxicity assays, various organisms and cells. Description: GENE-TOX mutagenicity studies. The settings on record: for call: Assay Type: In vivo carcinogenicity studies.
Setting [1] is: Species/Cell Type: Bacillus subtilis (H17 vs M45), Assay Type: Rec-assay, spot test, DNA effects (bacterial DNA repair), Assay Code: REW+, Evaluation Type: Evaluation A (Pre-1980).
Where [2] appears, read: Species/Cell Type: Nonhuman, Assay Code: CCGT, Evaluation Type: Evaluation A (Pre-1980).
The mark [3] stands for this setting: Species/Cell Type: Rodents, Sex: Male, Assay Type: Dominant lethal test, Assay Code: DLT-, Evaluation Type: Evaluation A (Pre-1980).
[4] abbreviates: Species/Cell Type: Salmonella typhimurium (one or more of the five standard strains: TA98, TA100, TA1535, TA1537, and TA1538), Assay Type: Histidine reverse gene mutation, Ames assay, Assay Code: SAL-, Evaluation Type: Evaluation A (Pre-1980).
[5] abbreviates: Species/Cell Type: Escherichia coli polA (W3119 vs P3478), Assay Type: Rec-assay, DNA effects (bacterial DNA repair), Assay Code: RE1+, Evaluation Type: Evaluation A (Pre-1980).
[6] abbreviates: Species/Cell Type: Human lymphocytes, Assay Type: Sister-chromatid exchange (SCE) in vitro, Assay Code: SCL+D, Dose Response: With dose response, Evaluation Type: Evaluation A (Pre-1980).
Setting [7] is: Species/Cell Type: Human, Assay Type: Sister-chromatid exchange (SCE) in vitro, Assay Code: SC1+D, Dose Response: With dose response, Evaluation Type: Evaluation A (Pre-1980).
Setting [8] is: Species/Cell Type: Nonhuman, Assay Type: Sister-chromatid exchange (SCE) in vitro, Assay Code: SC2+, Evaluation Type: Evaluation A (Pre-1980).
The mark [9] stands for this setting: Species/Cell Type: Mammalian polychromatic erythrocytes, Assay Type: Micronucleus test, chromosome aberrations, Assay Code: MNTT, Evaluation Type: Evaluation A (Pre-1980).
Setting [10] is: Species/Cell Type: Mouse, Sex: Male, Assay Type: Sperm morphology, Assay Code: SPI-, Evaluation Type: Evaluation A (Pre-1980).
Where [11] appears, read: Species/Cell Type: Nonhuman, Assay Type: Sister-chromatid exchange (SCE) in vitro, Assay Code: SC2+, Evaluation Type: Evaluation B (Post-1980).
The mark [12] stands for this setting: Species/Cell Type: Allium cepa, Assay Type: Chromosome aberrations, Assay Code: ALC+, Evaluation Type: Evaluation A (Pre-1980).
Setting [13] is: Species/Cell Type: Salmonella typhimurium (one or more of the five standard strains: TA98, TA100, TA1535, TA1537, and TA1538), Assay Type: Histidine reverse gene mutation, Ames assay, Assay Code: SAL+, Evaluation Type: Evaluation A (Pre-1980).
[14] abbreviates: Species/Cell Type: Nonhuman, Assay Code: CCG+, Evaluation Type: Evaluation A (Pre-1980).
Where [15] appears, read: Species/Cell Type: Nonhuman, Assay Type: Sister-chromatid exchange (SCE) in vitro, Assay Code: SC2+D, Dose Response: With dose response, Evaluation Type: Evaluation B (Post-1980).
Where [16] appears, read: Species/Cell Type: Saccharomyces cerevisiae, Assay Type: Mitotic recombination or gene conversion, Assay Code: YEC+, Evaluation Type: Evaluation A (Pre-1980).
Setting [17] is: Species/Cell Type: Escherichia coli WP2 UVRA, Assay Type: Tryptophan reverse gene mutation, Assay Code: WPU+D, Dose Response: With dose response, Evaluation Type: Evaluation A (Pre-1980).

Molecules are shown by their SMILES. The source made the active and inactive calls. How the calls were made is not given here.

For `O=C1C=C2C(=CCOC2O)O1` (stereo not given), the mutagenic call runs as follows: under setting [1], “active; positive”; (Species/Cell Type: Human lymphocytes, Assay Type: Sister-chromatid exchange (SCE) in vitro, Assay Code: SCL+D, Dose Response: With dose response, Evaluation Type: Evaluation B (Post-1980)) “active; positive”; (Species/Cell Type: Human, Assay Type: Sister-chromatid exchange (SCE) in vitro, Assay Code: SC1+D, Dose Response: With dose response, Evaluation Type: Evaluation B (Post-1980)) “active; positive”; (Species/Cell Type: Nonhuman, Assay Type: Chromosome aberrations in vitro, Assay Code: CY&+, Evaluation Type: Evaluation A (Pre-1980)) “active; positive”; (Species/Cell Type: Nonhuman, Assay Type: Sister-chromatid exchange (SCE) in vitro, Assay Code: SC2-, Evaluation Type: Evaluation B (Post-1980)) “inactive; negative”; under setting [3], “inactive; negative”. Also, the mutagenic call (Species/Cell Type: Saccharomyces cerevisiae, Assay Type: Mitotic recombination or gene conversion, Assay Code: YEH+/-*, Activation: With metabolic activation, Evaluation Type: Evaluation A (Pre-1980)) is “inactive; positive without activation, negative with activation” and the mutagenic call under setting [4] was “inactive; negative”. Further, the call under setting [2] is recorded as “no conclusion”.

`CC=O`: the mutagenic call reads like this: under setting [5], “active; positive”; under setting [6], “active; positive”; under setting [7], “active; positive”; under setting [8], “active; positive”; (Species/Cell Type: Nonhuman, Assay Type: Sister-chromatid exchange (SCE) in vivo, Assay Code: SC3+D, Dose Response: With dose response, Evaluation Type: Evaluation B (Post-1980)) “active; positive”.

For `COCCOS(C)(=O)=O`, the mutagenic call reads like this: (Species/Cell Type: Arabidopsis species, Assay Type: Gene mutation, Assay Code: ARM+D, Dose Response: With dose response, Evaluation Type: Evaluation A (Pre-1980)) “active; positive”; (Species/Cell Type: Hordeum vulgare (barley), Assay Type: Chromosome aberrations, Assay Code: HOC+D, Dose Response: With dose response, Evaluation Type: Evaluation A (Pre-1980)) “active; positive”.

`C[C@]12CCC(=O)C=C1CC[C@@H]1[C@@H]2CC[C@@]2(C)[C@H]1CC[C@]2(C)O`: where the note is “Species/Cell Type: Human, Sex: Male, Assay Type: Sperm morphology, Assay Code: SPH-, Evaluation Type: Evaluation A (Pre-1980)”, the mutagenic call is “inactive; negative”.

As to `CN(C)c1ccc(N=Nc2ccc(S(=O)(=O)O)cc2)cc1`, the mutagenic call (Species/Cell Type: Bacillus subtilis (H17 vs M45T), Assay Type: Rec-assay, spot test, DNA effects (bacterial DNA repair), Assay Code: REXT, Evaluation Type: Evaluation A (Pre-1980)) is reported as “no conclusion”; the mutagenic call under setting [9] is recorded as “no conclusion”; the mutagenic call under setting [10] is “inactive; negative”; the mutagenic call under setting [11] was “active; positive”; the mutagenic call under setting [4] is “inactive; negative”.

As to `O=[N+]([O-])c1ccc(O)c([N+](=O)[O-])c1`, the mutagenic call runs as follows: under setting [12], “active; positive”; (Species/Cell Type: Arabidopsis species, Assay Type: Gene mutation, Assay Code: ARM-, Evaluation Type: Evaluation A (Pre-1980)) “inactive; negative”.

`COC(=O)CCN1CC1`: the mutagenic call (Species/Cell Type: Schizosaccharomyces pombe, Assay Type: Reverse gene mutation, Assay Code: YEZ+, Evaluation Type: Evaluation A (Pre-1980)) was “active; positive”.

As to `O=C[C@H](O)[C@@H](O)[C@H](O)[C@H](O)CO`, the mutagenic call is, setting by setting: under setting [9], “no conclusion”; under setting [10], “inactive; negative”.

Regarding `CCC(CC)c1cccc(OC(=O)N(C)N=O)c1`, the mutagenic call under setting [13] is “active; positive”.

In the case of `CCCCN(N=O)C(=O)OCC`, the call under setting [14] is “active; positive”. For the same compound, the mutagenic call under setting [8] was “active; positive”.

`Oc1ccc(Cl)cc1Cc1cc(Cl)ccc1O`: the mutagenic call (Species/Cell Type: Mammalian polychromatic erythrocytes, Assay Type: Micronucleus test, chromosome aberrations, Assay Code: MNTT, Evaluation Type: Evaluation B (Post-1980)) is “no conclusion”.

Regarding `Cc1ccc2c(C)c(C)[nH]c2c1`, the mutagenic call reads like this: (Species/Cell Type: Human lymphocytes, Assay Type: Sister-chromatid exchange (SCE) in vitro, Assay Code: SCL+, Evaluation Type: Evaluation B (Post-1980)) “active; positive”; (Species/Cell Type: Human, Assay Type: Sister-chromatid exchange (SCE) in vitro, Assay Code: SC1+, Evaluation Type: Evaluation B (Post-1980)) “active; positive”.

`CS(=O)(=O)OCCNC[C@@H](O)[C@@H](O)CNCCOS(C)(=O)=O`: the mutagenic call is “active; positive” under setting [6] and “active; positive” under setting [7].

For the compound `C[n+]1ccc(-c2cc[n+](C)cc2)cc1`, the mutagenic call is “active; positive” under setting [12]; “active; positive” (Species/Cell Type: Hordeum vulgare (barley), Assay Type: Chromosome aberrations, Assay Code: HOC+, Evaluation Type: Evaluation A (Pre-1980)); “active; positive” under setting [15]; “inactive; negative” under setting [3]; “active; positive” under setting [16]; “inactive; negative” (Species/Cell Type: Vicia faba, Assay Type: Chromosome aberrations, Assay Code: VIC-, Evaluation Type: Evaluation A (Pre-1980)).

Regarding `Cc1c2c(c(CO)c3ccccc13)[C@H](O)[C@@H](O)c1ccccc1-2`, where the note is “Species/Cell Type: Chinese hamster lung (V79) cells, Assay Type: Forward gene mutation at the HPRT or ouabain locus, Assay Code: V79-*, Activation: With metabolic activation, Evaluation Type: Evaluation A (Pre-1980)”, the mutagenic call was “inactive; negative”. For the same compound, under setting [2], the call is “no conclusion”.

As to `CCCCOc1ccc(CC(=O)NOS(=O)(=O)O)cc1`, the mutagenic call under setting [11] is “active; positive”.

In the case of `O=CNc1nc(-c2ccc([N+](=O)[O-])o2)cs1`, the mutagenic call by setting is: under setting [1], “active; positive”; (Species/Cell Type: Escherichia coli WP2, Assay Type: Tryptophan reverse gene mutation, Assay Code: WP2+, Evaluation Type: Evaluation A (Pre-1980)) “active; positive”; under setting [17], “active; positive”; under setting [5], “active; positive”; (Species/Cell Type: Fischer rat embryo (RLV/1706) cells, Assay Type: Cell transformation, viral enhanced, Assay Code: CTR+, Evaluation Type: Evaluation A (Pre-1980)) “active; positive”; (Species/Cell Type: Mouse, Sex: Male, Assay Type: Sperm morphology, Assay Code: SPIT, Evaluation Type: Evaluation A (Pre-1980)) “no conclusion”. Also, the mutagenic call reads like this: (Species/Cell Type: Neurospora crassa, Assay Type: Forward gene mutation, Assay Code: NEF+, Evaluation Type: Evaluation A (Pre-1980)) “active; positive”; (Species/Cell Type: Neurospora crassa, Assay Type: Reverse gene mutation, Assay Code: NER+, Evaluation Type: Evaluation A (Pre-1980)) “active; positive”; under setting [15], “active; positive”; under setting [16], “active; positive”; (Species/Cell Type: Saccharomyces cerevisiae, Assay Type: Mitotic recombination or gene conversion, Assay Code: YEH+, Evaluation Type: Evaluation A (Pre-1980)) “active; positive”; under setting [13], “active; positive”. Further, the mutagenic call (Species/Cell Type: Salmonella typhimurium and Saccharomyces cerevisiae, Assay Type: Forward and reverse gene mutation, mitotic recombination and gene conversion, DNA effects, body fluid assay, Assay Code: BFG+, Evaluation Type: Evaluation A (Pre-1980)) is “active; positive”; the mutagenic call (Species/Cell Type: Salmonella typhimurium, Saccharomyces cerevisiae, Assay Type: Forward and reverse gene mutation, mitotic recombination and gene conversion, DNA effects, host-mediated assay, Assay Code: HM3+, Evaluation Type: Evaluation A (Pre-1980)) is “active; positive”; the mutagenic call (Species/Cell Type: Syrian hamster embryo (SHE) cells, Assay Type: Cell transformation, clonal assay, Assay Code: CTC+, Evaluation Type: Evaluation A (Pre-1980)) was “active; positive”. In addition, the call under setting [14] is “active; positive”.

For `CCc1cccc(C)c1N(C(=O)CCl)C(C)COC` (stereo not given), for the setting “Species/Cell Type: Zea mays (corn), Assay Type: Gene mutation, Assay Code: ZEM-, Evaluation Type: Evaluation A (Pre-1980)”, the mutagenic call was “inactive; negative”.

Consider `CCCCNC(=O)OCC`, for which the call under setting [2] is given as “no conclusion”. For the same compound, the mutagenic call (Species/Cell Type: Nonhuman, Assay Type: Sister-chromatid exchange (SCE) in vitro, Assay Code: SC2-, Evaluation Type: Evaluation A (Pre-1980)) is “inactive; negative”.

Consider `CC(C)Cc1ccc(C(C)C(=O)O)cc1` (stereo not given), for which, where the note is “Species/Cell Type: Human lymphocytes, Assay Type: Sister-chromatid exchange (SCE) in vivo, Assay Code: SCY+, Evaluation Type: Evaluation B (Post-1980)”, the mutagenic call was “active; positive”.

In the case of `Brc1ccc(C2CO2)cc1` (stereo not given), the mutagenic call under setting [17] was “active; positive”.
